Test results from US12240813B2, “Deuterated tryptamine derivatives and methods of use” (priority 2020, dated 2025).

How the values were obtained:
rat liver microsomes = test: Metabolic stability in rat liver microsomes (RLM); settings: for RLM, % (half-life as % vs. the related nondeuterated compound): values in square brackets are within 10% difference (assay's accuracy), no deuteration effect; for RLM (metabolized or not): last assay time point 120 min; for RLM, % (half-life as % vs. the related nondeuterated compound) / RLM (metabolized or not) / % Remaining of Initial, 0 min / % Remaining of Initial, 5 min / % Remaining of Initial, 10 min / % Remaining of Initial, 20 min / % Remaining of Initial, 30 min / % Remaining of Initial, 60 min / % Remaining of Initial, 120 min: RLM
hrMAO-A = molecular target: T1, hrMAO-A (Homo sapiens, UniProt P21397); test: Metabolic stability in the presence of hrMAO-A; assay type: in vitro ADME; settings: for MAO, % (half-life as % vs. the related nondeuterated compound) / MAO (metabolized or not): MAO-A; for MAO, % (half-life as % vs. the related nondeuterated compound): values in square brackets are within 10% difference (assay's accuracy), no deuteration effect; for MAO (metabolized or not): last assay time point 120 min; for % Remaining of Initial, 0 min / % Remaining of Initial, 5 min / % Remaining of Initial, 10 min / % Remaining of Initial, 20 min / % Remaining of Initial, 30 min / % Remaining of Initial, 60 min / % Remaining of Initial, 120 min / CLint / Half-life: hrMAO-A; for CLint: Table 3
T1 construct: purchased XenoTech Lot #8213001
T1 sequence (P21397 1-527): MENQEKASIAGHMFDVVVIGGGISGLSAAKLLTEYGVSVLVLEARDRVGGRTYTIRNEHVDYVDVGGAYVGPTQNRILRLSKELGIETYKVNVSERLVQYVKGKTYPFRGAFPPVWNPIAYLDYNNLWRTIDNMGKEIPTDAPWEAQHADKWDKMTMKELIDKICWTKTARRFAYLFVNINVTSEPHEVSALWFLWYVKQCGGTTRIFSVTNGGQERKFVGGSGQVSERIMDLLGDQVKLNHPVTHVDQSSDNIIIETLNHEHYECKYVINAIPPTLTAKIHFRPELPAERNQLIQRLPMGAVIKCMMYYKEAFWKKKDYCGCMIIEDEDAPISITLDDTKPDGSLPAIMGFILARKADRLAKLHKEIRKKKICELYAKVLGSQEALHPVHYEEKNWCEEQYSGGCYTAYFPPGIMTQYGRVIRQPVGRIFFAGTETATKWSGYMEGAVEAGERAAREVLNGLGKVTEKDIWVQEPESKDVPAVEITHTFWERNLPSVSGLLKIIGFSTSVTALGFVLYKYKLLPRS
Experimental: The reaction mixture was prepared as described below. The co-dosed TAs were added into the reaction mixture at a final concentration of 1 microM each. The positive control, kynuramine (25 microM), was run simultaneously with the TAs in a separate reaction. The reaction mixture (without TAs or kynuramine) was equilibrated in a shaking water bath at 37° C. for 5 minutes. The reaction was initiated by the addition of the TAs or kynuramine, and the mixture was incubated in a shaking water bath at 37° C. Aliquots (100 microL) of the TA reaction mixture were withdrawn at 0, 5, 10, 20, 30, 60, and 120 minutes. Aliquots (100 microL) of the positive control reaction mixture were withdrawn at 0 and 30 minutes. TA and kynuramine samples were immediately combined with 100 microL of ice-cold 100% MeCN containing 0.1% formic acid and IS to terminate the reaction. The samples were then mixed and centrifuged to precipitate proteins. All TA samples were assayed by LC-HRAMS. The PARR (analyte to IS) at each time point was compared to the PARR at time 0 to determine the percent remaining at each time point. Reaction composition: hrMAO 0.02 mg/mL; Potassium Phosphate, pH 7.4 100 mM; Magnesium Chloride 5 mM; Test Articles (each) 1 microM.

[1] = Table 4, d8 and d10 analogs of DMT
[2] = Table 5, d8 and d10 analogs of DMT

## [2H]C([2H])([2H])Oc1ccc2[nH]cc(CC([2H])([2H])N(C([2H])([2H])[2H])C([2H])([2H])[2H])c2c1
Rat liver microsomes
  RLM, % (half-life as % vs. the related nondeuterated compound): 288%
hrMAO-A
  MAO, % (half-life as % vs. the related nondeuterated compound): 366%

## [2H]c1[nH]c2c([2H])c([2H])c([2H])c([2H])c2c1C([2H])([2H])C([2H])([2H])N(C)C
Rat liver microsomes
  RLM, % (half-life as % vs. the related nondeuterated compound): 243%
hrMAO-A
  MAO, % (half-life as % vs. the related nondeuterated compound): 551%

## [2H]c1[nH]c2c([2H])c([2H])c([2H])c([2H])c2c1CCN(C)C
Rat liver microsomes
  RLM, % (half-life as % vs. the related nondeuterated compound): [106] %
hrMAO-A
  MAO, % (half-life as % vs. the related nondeuterated compound): [103] %

## [2H]C([2H])([2H])Oc1ccc2[nH]cc(CCN(C)C)c2c1
Rat liver microsomes
  RLM, % (half-life as % vs. the related nondeuterated compound): 151%
hrMAO-A
  MAO, % (half-life as % vs. the related nondeuterated compound): [109] %

## [2H]C([2H])(NC)C([2H])([2H])c1c[nH]c2ccccc12
Rat liver microsomes
  RLM, % (half-life as % vs. the related nondeuterated compound): 189%
hrMAO-A
  MAO, % (half-life as % vs. the related nondeuterated compound): 622%

## [2H]C([2H])(Cc1c[nH]c2ccccc12)NC
Rat liver microsomes
  RLM, % (half-life as % vs. the related nondeuterated compound): 182%
hrMAO-A
  MAO, % (half-life as % vs. the related nondeuterated compound): 578%

## COc1ccc2[nH]cc(CCN(C)C)c2c1 [5-MeO-DMT, reference compound]
Rat liver microsomes
  RLM (metabolized or not): R
hrMAO-A
  MAO (metabolized or not): R

## CN(C)CCc1c[nH]c2ccccc12 [DMT, reference compound]
Rat liver microsomes; Table 2, four test articles
  % Remaining of Initial, 0 min: 100%
  % Remaining of Initial, 5 min: 65.2%
  % Remaining of Initial, 10 min: 52.2%
  % Remaining of Initial, 20 min: 41.0%
  % Remaining of Initial, 30 min: 33.2%
  % Remaining of Initial, 60 min: 17.4%
  % Remaining of Initial, 120 min: 4.07%
hrMAO-A; Table 3, four test articles
  % Remaining of Initial, 0 min: 100%
  % Remaining of Initial, 5 min: 96.3%
  % Remaining of Initial, 10 min: 90.7%
  % Remaining of Initial, 20 min: 64.8%
  % Remaining of Initial, 30 min: 49.4%
  % Remaining of Initial, 60 min: 18.1%
  % Remaining of Initial, 120 min: 3.95%
  Half-life: 0.453 h
hrMAO-A
  CLint: 0.638 mL/min/mg protein

## [2H]C([2H])(Cc1c[nH]c2ccccc12)N(C)C [DMT-d2]
Rat liver microsomes; Table 2, four test articles
  % Remaining of Initial, 0 min: 100%
  % Remaining of Initial, 5 min: 67.5%
  % Remaining of Initial, 10 min: 56.6%
  % Remaining of Initial, 20 min: 48.8%
  % Remaining of Initial, 30 min: 43.3%
  % Remaining of Initial, 60 min: 32.0%
  % Remaining of Initial, 120 min: 21.5%
hrMAO-A; Table 3, four test articles
  % Remaining of Initial, 0 min: 100%
  % Remaining of Initial, 5 min: 106%
  % Remaining of Initial, 10 min: 111%
  % Remaining of Initial, 20 min: 101%
  % Remaining of Initial, 30 min: 97.5%
  % Remaining of Initial, 60 min: 76.0%
  % Remaining of Initial, 120 min: 59.1%
  Half-life: > 2 h
hrMAO-A
  CLint: 0.126 mL/min/mg protein

## [2H]C([2H])(c1c[nH]c2ccccc12)C([2H])([2H])N(C)C [DMT-d4]
Rat liver microsomes; Table 2, four test articles
  % Remaining of Initial, 0 min: 100%
  % Remaining of Initial, 5 min: 70.7%
  % Remaining of Initial, 10 min: 59.6%
  % Remaining of Initial, 20 min: 51.8%
  % Remaining of Initial, 30 min: 46.3%
  % Remaining of Initial, 60 min: 34.2%
  % Remaining of Initial, 120 min: 23.7%
hrMAO-A; Table 3, four test articles
  % Remaining of Initial, 0 min: 100%
  % Remaining of Initial, 5 min: 106%
  % Remaining of Initial, 10 min: 111%
  % Remaining of Initial, 20 min: 102%
  % Remaining of Initial, 30 min: 98.2%
  % Remaining of Initial, 60 min: 77.4%
  % Remaining of Initial, 120 min: 61.4%
  Half-life: > 2 h
hrMAO-A
  CLint: 0.119 mL/min/mg protein

## [2H]C([2H])([2H])N(C([2H])([2H])[2H])C([2H])([2H])C([2H])([2H])c1c[nH]c2ccccc12 [DMT-d10]
Rat liver microsomes; Table 2, four test articles
  % Remaining of Initial, 0 min: 100%
  % Remaining of Initial, 5 min: 72.5%
  % Remaining of Initial, 10 min: 62.2%
  % Remaining of Initial, 20 min: 55.2%
  % Remaining of Initial, 30 min: 50.9%
  % Remaining of Initial, 60 min: 39.6%
  % Remaining of Initial, 120 min: 29.4%
Rat liver microsomes; [1]
  % Remaining of Initial, 0 min: 100%
  % Remaining of Initial, 5 min: 69.3%
  % Remaining of Initial, 10 min: 56.0%
  % Remaining of Initial, 20 min: 44.9%
  % Remaining of Initial, 30 min: 39.3%
  % Remaining of Initial, 60 min: 30.5%
  % Remaining of Initial, 120 min: 23.6%
Rat liver microsomes; rat liver microsomes, compared with DMT-α,α-d2 and DMT-α,α,β,β-d4
  metabolic stability: Further enhancement of metabolic stability
hrMAO-A; MAO-A enzymatic assay
  stability in the MAO-A enzymatic assay: superiority
hrMAO-A; Table 3, four test articles
  % Remaining of Initial, 0 min: 100%
  % Remaining of Initial, 5 min: 107%
  % Remaining of Initial, 10 min: 112%
  % Remaining of Initial, 20 min: 103%
  % Remaining of Initial, 30 min: 101%
  % Remaining of Initial, 60 min: 82.2%
  % Remaining of Initial, 120 min: 68.6%
  Half-life: > 2 h
hrMAO-A; [2]
  % Remaining of Initial, 0 min: 100.0%
  % Remaining of Initial, 5 min: 99.0%
  % Remaining of Initial, 10 min: 94.9%
  % Remaining of Initial, 20 min: 95.4%
  % Remaining of Initial, 30 min: 91.4%
  % Remaining of Initial, 60 min: 81.5%
  % Remaining of Initial, 120 min: 65.8%
  Half-life: > 2 h

## [2H]c1[nH]c2c([2H])c([2H])c([2H])c([2H])c2c1C([2H])([2H])C([2H])([2H])N(C([2H])([2H])[2H])C([2H])([2H])[2H] [DMT-d15]
Rat liver microsomes; RLM assay
  half-life compared to DMT-d10: no improvement in half-life
Rat liver microsomes
  RLM, % (half-life as % vs. the related nondeuterated compound): 325%
hrMAO-A
  MAO, % (half-life as % vs. the related nondeuterated compound): 643%

## CCNCCc1c[nH]c2ccccc12 [reference compound]
Rat liver microsomes
  RLM (metabolized or not): R
hrMAO-A
  MAO (metabolized or not): R

## CCN(C)CCc1c[nH]c2ccccc12 [reference compound]
Rat liver microsomes
  RLM (metabolized or not): R
hrMAO-A
  MAO (metabolized or not): R

## CNCCc1c[nH]c2cccc(O)c12 [reference compound]
Rat liver microsomes
  RLM (metabolized or not): R
hrMAO-A
  MAO (metabolized or not): R
